From patent publication US10201165B2 (Board of Trustees of Michigan State University, priority 2014, dated 2019)
Like-named read-outs stand apart in the source and are kept apart here.

Columns and labels:
fungi [1] = assay: Antifungal activity (test not specified); conditions: compound identified from leaves of Prunus maackii
Cladosporium cucumerinum = assay: TLC bioassay for detection of antimicrobial activity; format: cell-based; conditions: FIG. 3, white areas
Description: A TLC-bioassay of extract from Prunus maackii, P. serotina, and P. mahelab was conducted using three different extraction methods. Periderm tissue was extracted in 80% acetone, in hot water, or in water in an autoclave. Extracts were tested for antimicrobial activity by a thin layer chromatography bioassay on cellulose TLC plates. Samples were separated with, and the plates were developed in, water.
For the TLC bioassay for the detection of antimicrobial activity, 5 μL of the samples (column fractions, suspended in 80% methanol) were applied to Analtech® silica gel (TLC) plates and were developed in a TLC tank (30×20×10 cm) using 100 mL of chloroform:methanol (8.5:1, v/v). Within 24 hours of developing the TLC plates, the plates were evenly sprayed with a dense fungal suspension of C. cucumerinum in ½ strength potato-dextrose broth and then placed in a moist incubation chamber for three days to allow fungal growth.

fungi [2] = conditions: compound tentatively assigned to HPLC-MS peak around 255 g/mol; cited from earlier work

SMILES: COc1c(O)cc(O)c2c1OC(c1ccccc1)CC2=O (stereo not drawn) [Dihydrowogonin, 5,7-dihydroxy-8-methoxy-2-phenyl-2,3-dihydrochromen-4-one]
- Antifungal activity (fungi [1]): antifungal activity

SMILES: COc1c(O)cc2oc(-c3ccccc3)c(O)c(=O)c2c1O [alnusin, 3,5,7-trihydroxy-6-methoxyflavone]
- Fungal inhibition on TLC plate by isolated compounds (Cladosporium cucumerinum): fungal inhibition

SMILES: O=C1C[C@@H](c2ccccc2)Oc2cc(O)cc(O)c21 [pinocembrin]
- Antifungal activity (fungi [2]): antifungal activity
